Consider 32 molecules from patent publication US10934302B1, “SHP2 phosphatase inhibitors and methods of use thereof” (Relay Therapeutics, Inc., priority 2018, dated 2021).

The IC50 is the concentration needed to halve the response being measured. A high value points to lower potency.

The assay deals with SHP2 (Homo sapiens (Human), UniProt Q06124). Put plainly: SHP2 allosteric inhibition assay (DiFMUP prompt fluorescence). The assay is classed as biochemical. The conditions noted are these: 0.25 nM SHP2 activated with 0.5 μM peptide IRS1_pY1172(dPEG8)pY1222; substrate DiFMUP.
Chain of SHP2 (Q06124 whole entry): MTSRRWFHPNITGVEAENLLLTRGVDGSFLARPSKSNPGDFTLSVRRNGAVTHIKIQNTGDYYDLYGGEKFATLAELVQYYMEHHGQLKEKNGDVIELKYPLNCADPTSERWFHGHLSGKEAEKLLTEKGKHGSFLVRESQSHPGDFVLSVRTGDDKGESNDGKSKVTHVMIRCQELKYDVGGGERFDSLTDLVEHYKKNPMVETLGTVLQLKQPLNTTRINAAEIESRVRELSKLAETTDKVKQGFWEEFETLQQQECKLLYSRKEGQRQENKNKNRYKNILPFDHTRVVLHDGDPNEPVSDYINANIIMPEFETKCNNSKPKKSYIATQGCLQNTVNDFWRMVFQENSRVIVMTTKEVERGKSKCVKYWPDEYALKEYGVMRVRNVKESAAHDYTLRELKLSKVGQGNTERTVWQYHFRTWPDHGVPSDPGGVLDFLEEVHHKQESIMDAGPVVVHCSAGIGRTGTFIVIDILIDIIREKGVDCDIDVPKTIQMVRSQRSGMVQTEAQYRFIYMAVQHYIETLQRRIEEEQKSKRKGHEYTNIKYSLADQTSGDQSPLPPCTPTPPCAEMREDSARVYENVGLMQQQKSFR
`Cn1ccc2c(c1=O)CCCN2c1n[nH]c2nc(N3CCC4(CC3)Cc3c(F)cccc3[C@H]4N)cnc12` [Example 53] returned an IC50 not above 50 nM.

Regarding `Nc1nccc(Sc2cnc3c(n2)OC[C@H]2C[C@@]4(CCN32)Oc2ccccc2[C@H]4N)c1Cl` [Example 222], the IC50 was not above 50 nM.

On to `N[C@@H]1c2ccccc2CC12CCN(c1ncc(N3CCc4ccccc43)nc1CO)CC2` [Example 213, (S)-(3-(1-amino-1,3-dihydrospiro[indene-2,4′-piperidin]-1′-yl)-6-(indolin-1-yl)pyrazin-2-yl) methanol], for which the IC50 is 50 to 1000 nM.

Take `Nc1nccc(Sc2ccc(N3CCC4(CC3)Cc3cc(F)ccc3[C@H]4N)cn2)c1Cl` [Example 217]: the IC50 was not above 50 nM.

The molecule `N[C@@H]1c2ccccc2CC12CCN(c1nc3[nH]nc(Sc4ccnc(Cl)c4Cl)c3nc1CO)CC2` [Example 88] registered an IC50 not above 50 nM.

The molecule `CNC(=O)c1cc(C)nc(N2CCC3(CC2)Cc2ccccc2[C@H]3N)c1` [Example 228] showed an IC50 of more than 10000 nM.

As for `Cc1nccc(Sc2n[nH]c3nc(N4CCC5(CC4)Cc4ccccc4[C@H]5N)cnc23)c1Cl` [Example 90], the IC50 lay within 50 to 1000 nM.

`N[C@@H]1c2ccccc2CC12CCN(c1cnc(Cc3ccnc(Cl)c3Cl)cn1)CC2` [Example 157, (3S)-1′-{5-[(2,3-dichloropyridin-4-YL)methyl]pyrazin-2-yl}-1,3-dihydrospiro[indene-2,4′-piperidin]-3-amine]: the IC50 was not above 50 nM.

The molecule `Cc1nc(SC2CCCC2)cnc1N1CCC2(CC1)Cc1ccccc1[C@H]2N` [Example 249, (3S)-1′-[5-(cyclopentylsulfanyl)-3-methylpyrazin-2-yl]-1,3-dihydrospiro[indene-2,4′-piperidin]-3-amine] showed an IC50 not above 50 nM.

The molecule `Nc1nccc(Sc2ccc(N3CCC4(CC3)Cc3ccccc3[C@H]4N)cn2)c1Cl` [Example 97] gave an IC50 of 50 to 1000 nM.

For the molecule `CC(=O)N1CCN(c2n[nH]c3nc(N4CCC5(CC4)Cc4ccccc4[C@H]5N)cnc23)c2ccccc21` [Example 2, 1-(4-{6-[(3S)-3-amino-1,3-dihydrospiro[indene-2,4′-piperidin]-1′-yl]-1H-pyrazolo[3,4-b]pyrazin-3-yl}-1,2,3,4-tetrahydroquinoxalin-1-yl)ethan-1-one], the IC50 was not above 50 nM.

`N[C@H]1c2ccccc2C[C@]12CC[C@H](c1cnc(Sc3ccnc(Cl)c3Cl)cn1)CC2` (single isomer, unassigned) [Example 276, (1s, 3′R, 4S)-4-{5-[(2,3-dichloropyridin-4-yl)sulfanyl]pyrazin-2-yl}-1′,3′-dihydrospiro[cyclohexane-1,2′-inden]-3′-amine]: the IC50 was not above 50 nM.

`N[C@@H]1c2ccccc2CC12CCN(c1cnc(S[C@H]3CCOC3)cn1)CC2` (single isomer, unassigned) [Example 234] came in with an IC50 not above 50 nM.

In the case of `Cc1nc2c(N3CCCCC3)n[nH]c2nc1N1CCC2(CC1)Oc1cc(F)ccc1[C@H]2N` [Example 278, (3R)-6-fluoro-1′-[5-methyl-3-(piperidin-1-yl)-1H-Pyrazolo[3,4-b]pyrazin-6-yl]-3H-spiro[1-benzofuran-2,4′-piperidin]-3-amine], the IC50 is not above 50 nM.

The molecule `N[C@@H]1c2ccccc2CC12CCN(c1cnc(SCCc3ccccc3)cn1)CC2` [Example 265, (S)-1′-(5-(phenethylthio)pyrazin-2-yl)-1,3-dihydrospiro[indene-2,4′-piperidin]-1-amine] had a half-maximal inhibitory concentration (IC50) not above 50 nM.

The molecule `CN(C)C(=O)c1ccc2c(c1)[C@@H](N)C1(CCN(c3cnc4c(N5CCCc6ncccc65)n[nH]c4n3)CC1)C2` [Example 27] had an IC50 not above 50 nM.

As for `Cc1cc(N2CCC3(CC2)Cc2ccccc2[C@H]3N)cc(S(C)(=O)=O)c1` [Example 271, (S)-1′-(3-methyl-5-(methylsulfonyl)phenyl)-1,3-dihydrospiro[indene-2,4′-piperidin]-1-amine], the half-inhibitory concentration (IC50) is not above 50 nM.

With `N[C@@H]1c2ccccc2CC12CCN(c1cnc(C(=O)c3ccccc3)cn1)CC2` [Example 256, (S)-(5-(1-amino-1,3-dihydrospiro[indene-2,4′-piperidin]-1′-yl)pyrazin-2-yl)(phenyl)methanone], the concentration for half-maximal inhibition (IC50) is not above 50 nM.

With `Cn1ccc2c(c1=O)CCCN2c1n[nH]c2nc(N3CCC4(CC3)Oc3ccccc3[C@H]4N)cnc12` [Example 57], the IC50 is not above 50 nM.

`N[C@H]1c2cccc(F)c2CC12CCN(c1cnc3c(N4CCCc5ncccc54)n[nH]c3n1)CC2` [Example 16] registered an IC50 of 1000 to 10000 nM.

In turn, `Cc1cc(N2CCC3(CC2)Cc2ccccc2[C@H]3N)cnc1Sc1ccnc(N)c1Cl` [Example 219] showed an IC50 not above 50 nM.

Take `N[C@@H]1c2ccccc2CC12CCN(c1cnc3c(N4CCCc5cc(OS(=O)(=O)F)ccc54)n[nH]c3n1)CC2` [Example 65, 1-{6-[(3S)-3-amino-1,3-dihydrospiro[indene-2,4′-piperidin]-1′-yl]-1H-pyrazolo[3,4-b]pyrazin-3-yl}-1,2,3,4-tetrahydroquinolin-6-yl sulfurofluoridate]: the IC50 is not above 50 nM.

For the molecule `CC(=O)N1CCN(c2n[nH]c3nc(N4CCC5(CC4)Cc4ccccc4[C@@H]5N)cnc23)c2ccccc21` [Example 1, 1-(4-{6-[(3R)-3-amino-1,3-dihydrospiro[indene-2,4′-piperidin]-1′-yl]-1H-pyrazolo[3,4-b]pyrazin-3-yl}-1,2,3,4-tetrahydroquinoxalin-1-yl)ethan-1-one], the IC50 was not above 50 nM.

In turn, `N[C@@H]1c2ccccc2CC12CCN(c1cnc(SC3CCCCC3)cn1)CC2` [Example 233, (3S)-1′-[5-(cyclohexylsulfanyl)pyrazin-2-yl]-1,3-dihydrospiro[indene-2,4′-piperidin]-3-amine] registered an IC50 not above 50 nM.

As to `Nc1nccc(Sc2cnc(N3CCC4(CC3)Cc3c(F)cccc3[C@H]4N)cn2)c1Cl` [Example 139, (S)-1′-(5-((2-amino-3-chloropyridin-4-yl)thio)pyrazin-2-V)-4-fluoro-1,3-dihydrospiro[indene-2,4′-piperidin]-1-amine], the IC50 is not above 50 nM.

Molecule `Cc1c(-c2ccccc2Cl)nc2sc(N3CCC4(CC3)Cc3ccccc3[C@H]4N)nn12` [Example 144, (S)-1′-(6-(2-chlorophenyl)-5-methylimidazo[2,1-b][1,3,4]thiadiazol-2-yl)-1,3-dihydrospiro[indene-2,4′-piperidin]-1-amine] registered an IC50 not above 50 nM.

For the molecule `N[C@@H]1c2ccccc2CC12CCN(c1ncc(SCC3CC3)c(=O)[nH]1)CC2` [Example 237], the IC50 is not above 50 nM.

`Cn1ncc2c1CC1(CCN(c3cnc4c(N5CCCc6ncccc65)n[nH]c4n3)CC1)[C@@H]2N` [Example 110] came in with an IC50 not above 50 nM.

Molecule `Nc1nccc(Sc2cnc3c(n2)OC[C@H]2C[C@@]4(CCN32)Oc2ccccc2[C@@H]4N)c1Cl` [Example 221] gave an IC50 not above 50 nM.

Molecule `Nc1nccc(Sc2ccc(N3CCC4(CC3)Oc3ccc(F)cc3[C@H]4N)cn2)c1Cl` [Example 225] displayed a half-inhibitory concentration (IC50) of more than 10000 nM.

In the case of `N[C@@H]1c2ccccc2CC12CCN(C1=Nc3ncc(C4CC4)cc3C1)CC2` [Example 229], the IC50 is not above 50 nM.

`N[C@@H]1c2c(F)ccc(F)c2CC12CCN(c1cnc3c(N4CCCc5ncccc54)n[nH]c3n1)CC2` [Example 112]: the IC50 was not above 50 nM.
